Source: PubChem BioAssay AID1963965 (Molecular Pharmacology Branch, DTP, NCI, 2024)

System: 996289-038-R-J1-PDC spheroid viability
Assay: Anticancer human tumor 996289-038-R-J1-PDC patient-derived colon adenocarcinoma cell line growth inhibition [PI3K]
Conditions: spheroids with HUVEC and MSC; for IC50: curve of first compound; for viability, T/C: stronger effect = lower value
In short: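 Complex 3D spheroids (cancer cells + endothelial HUVEC + mesenchymal stem cells); drug pairs of targeted agent x inavolisib/alpelisib/duvelisib/copanlisib; half-log series from ~Cmax, max 10 microM if Cmax unknown; endpoint viability.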

[1] = second compound 0.0316 µM, first compound 0.0316 µM
[2] = second compound 0.0316 µM, first compound 0.1 µM
[3] = second compound 0.1 µM, first compound 0.0316 µM
[4] = second compound 0.1 µM, first compound 0.1 µM
[5] = second compound 0.316 µM, first compound 0.0316 µM
[6] = second compound 0.316 µM, first compound 0.1 µM
[7] = second compound 1 µM, first compound 0.0316 µM
[8] = second compound 1 µM, first compound 0.1 µM
[9] = second compound 3.16 µM, first compound 0.0316 µM
[10] = second compound 3.16 µM, first compound 0.1 µM
[11] = second compound 10 µM, first compound 0.0316 µM
[12] = second compound 10 µM, first compound 0.1 µM
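Note: spheroids exposed to compounds for seven days before viability read.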
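Throughout, for viability, T/C: luminescence used as a proxy for viable cell amount; percent viability relative to DMSO vehicle control as 100%.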

## CC(=O)c1c(C)c2cnc(Nc3ccc(N4CCNCC4)cn3)nc2n(C2CCCC2)c1=O + Cc1nc(NC(=O)N2CCCC2C(N)=O)sc1-c1ccnc(C(C)(C)C(F)(F)F)c1
Second compound 0.0316 µM
  IC50: > 100 nM
Second compound 0.1 µM
  IC50: > 100 nM
Second compound 0.316 µM
  IC50: > 100 nM
Second compound 1 µM
  IC50: > 100 nM
Second compound 3.16 µM
  IC50: > 100 nM
Second compound 10 µM
  IC50: < 0.316 nM
Second compound 0.0316 µM, first compound 0.000316 µM
  viability, T/C: 99.8%
Second compound 0.0316 µM, first compound 0.001 µM
  viability, T/C: 83.4%
Second compound 0.0316 µM, first compound 0.00316 µM
  viability, T/C: 89.9%
Second compound 0.0316 µM, first compound 0.01 µM
  viability, T/C: 86.4%
[1]
  viability, T/C: 110%
[2]
  viability, T/C: 99.8%
Second compound 0.1 µM, first compound 0.000316 µM
  viability, T/C: 111%
Second compound 0.1 µM, first compound 0.001 µM
  viability, T/C: 88.9%
Second compound 0.1 µM, first compound 0.00316 µM
  viability, T/C: 107%
Second compound 0.1 µM, first compound 0.01 µM
  viability, T/C: 91.7%
[3]
  viability, T/C: 94.7%
[4]
  viability, T/C: 81.6%
Second compound 0.316 µM, first compound 0.000316 µM
  viability, T/C: 81.5%
Second compound 0.316 µM, first compound 0.001 µM
  viability, T/C: 78.1%
Second compound 0.316 µM, first compound 0.00316 µM
  viability, T/C: 80%
Second compound 0.316 µM, first compound 0.01 µM
  viability, T/C: 80.2%
[5]
  viability, T/C: 86.4%
[6]
  viability, T/C: 77.7%
Second compound 1 µM, first compound 0.000316 µM
  viability, T/C: 77.7%
Second compound 1 µM, first compound 0.001 µM
  viability, T/C: 74.5%
Second compound 1 µM, first compound 0.00316 µM
  viability, T/C: 69.2%
Second compound 1 µM, first compound 0.01 µM
  viability, T/C: 69.7%
[7]
  viability, T/C: 85.2%
[8]
  viability, T/C: 66.7%
Second compound 3.16 µM, first compound 0.000316 µM
  viability, T/C: 60.1%
Second compound 3.16 µM, first compound 0.001 µM
  viability, T/C: 57.9%
Second compound 3.16 µM, first compound 0.00316 µM
  viability, T/C: 62.7%
Second compound 3.16 µM, first compound 0.01 µM
  viability, T/C: 61.7%
[9]
  viability, T/C: 57.9%
[10]
  viability, T/C: 48%
Second compound 10 µM, first compound 0.000316 µM
  viability, T/C: 45.4%
Second compound 10 µM, first compound 0.001 µM
  viability, T/C: 40.6%
Second compound 10 µM, first compound 0.00316 µM
  viability, T/C: 36.6%
Second compound 10 µM, first compound 0.01 µM
  viability, T/C: 39.9%
[11]
  viability, T/C: 47.4%
[12]
  viability, T/C: 36.8%

## CCCS(=O)(=O)Nc1ccc(F)c(C(=O)c2c[nH]c3ncc(-c4ccc(Cl)cc4)cc23)c1F + Cc1nc(NC(=O)N2CCCC2C(N)=O)sc1-c1ccnc(C(C)(C)C(F)(F)F)c1
Second compound 0.0316 µM
  IC50: 5900 nM
Second compound 0.1 µM
  IC50: 5510 nM
Second compound 0.316 µM
  IC50: 5540 nM
Second compound 1 µM
  IC50: 3450 nM
Second compound 3.16 µM
  IC50: 1520 nM
Second compound 10 µM
  IC50: 31.6 nM
[1]
  viability, T/C: 90.2%
[2]
  viability, T/C: 86.1%
Second compound 0.0316 µM, first compound 0.316 µM
  viability, T/C: 108%
Second compound 0.0316 µM, first compound 1 µM
  viability, T/C: 96.1%
Second compound 0.0316 µM, first compound 3.16 µM
  viability, T/C: 82.6%
Second compound 0.0316 µM, first compound 10 µM
  viability, T/C: 22%
[3]
  viability, T/C: 95.9%
[4]
  viability, T/C: 87.7%
Second compound 0.1 µM, first compound 0.316 µM
  viability, T/C: 91.6%
Second compound 0.1 µM, first compound 1 µM
  viability, T/C: 88.3%
Second compound 0.1 µM, first compound 3.16 µM
  viability, T/C: 79.5%
Second compound 0.1 µM, first compound 10 µM
  viability, T/C: 18.5%
[5]
  viability, T/C: 84.2%
[6]
  viability, T/C: 84.8%
Second compound 0.316 µM, first compound 0.316 µM
  viability, T/C: 80.2%
Second compound 0.316 µM, first compound 1 µM
  viability, T/C: 81.3%
Second compound 0.316 µM, first compound 3.16 µM
  viability, T/C: 70.5%
Second compound 0.316 µM, first compound 10 µM
  viability, T/C: 28.3%
[7]
  viability, T/C: 70.4%
[8]
  viability, T/C: 79.6%
Second compound 1 µM, first compound 0.316 µM
  viability, T/C: 70.5%
Second compound 1 µM, first compound 1 µM
  viability, T/C: 66.7%
Second compound 1 µM, first compound 3.16 µM
  viability, T/C: 53.1%
Second compound 1 µM, first compound 10 µM
  viability, T/C: 17%
[9]
  viability, T/C: 61.1%
[10]
  viability, T/C: 63.5%
Second compound 3.16 µM, first compound 0.316 µM
  viability, T/C: 57.3%
Second compound 3.16 µM, first compound 1 µM
  viability, T/C: 54.1%
Second compound 3.16 µM, first compound 3.16 µM
  viability, T/C: 43.2%
Second compound 3.16 µM, first compound 10 µM
  viability, T/C: 15.4%
[11]
  viability, T/C: 44%
[12]
  viability, T/C: 44.8%
Second compound 10 µM, first compound 0.316 µM
  viability, T/C: 43.3%
Second compound 10 µM, first compound 1 µM
  viability, T/C: 53.2%
Second compound 10 µM, first compound 3.16 µM
  viability, T/C: 31.9%
Second compound 10 µM, first compound 10 µM
  viability, T/C: 11.5%
